In PubChem BioAssay AID1259407 (Chemical Carcinogenesis Research Information System (CCRIS), 2018):
Active and inactive are the calls of the source. How the calls were made is not given here.

Tested on: CCRIS mutagenicity, Ames/micronucleus/aberration tests
Assay: CCRIS mutagenicity studies
[1] = Test System: AMES SALMONELLA TYPHIMURIUM, Strain/Indicator: TA98, Metabolic Activation: NONE, Method: PREINCUBATION
[2] = Test System: AMES SALMONELLA TYPHIMURIUM, Strain/Indicator: TA98, Metabolic Activation: NONE, Method: STANDARD PLATE
[3] = Test System: AMES SALMONELLA TYPHIMURIUM, Strain/Indicator: TA98, Metabolic Activation: RAT, LIVER, S-9, AROCLOR 1254, Method: PREINCUBATION
[4] = Test System: AMES SALMONELLA TYPHIMURIUM, Strain/Indicator: TA98, Metabolic Activation: RAT, LIVER, S-9, AROCLOR 1254, Method: STANDARD PLATE
[5] = Test System: AMES SALMONELLA TYPHIMURIUM, Strain/Indicator: TA100, Metabolic Activation: NONE, Method: PREINCUBATION
[6] = Test System: AMES SALMONELLA TYPHIMURIUM, Strain/Indicator: TA100, Metabolic Activation: NONE, Method: STANDARD PLATE
[7] = Test System: AMES SALMONELLA TYPHIMURIUM, Strain/Indicator: TA100, Metabolic Activation: RAT, LIVER, S-9, AROCLOR 1254, Method: PREINCUBATION
[8] = Test System: AMES SALMONELLA TYPHIMURIUM, Strain/Indicator: TA100, Metabolic Activation: RAT, LIVER, S-9, AROCLOR 1254, Method: STANDARD PLATE
[9] = Test System: AMES SALMONELLA TYPHIMURIUM, Strain/Indicator: TA1535, Metabolic Activation: NONE, Method: PREINCUBATION
[10] = Test System: AMES SALMONELLA TYPHIMURIUM, Strain/Indicator: TA1535, Metabolic Activation: RAT, LIVER, S-9, AROCLOR 1254, Method: PREINCUBATION
[11] = Test System: AMES SALMONELLA TYPHIMURIUM, Strain/Indicator: TA1537, Metabolic Activation: NONE, Method: PREINCUBATION
[12] = Test System: AMES SALMONELLA TYPHIMURIUM, Strain/Indicator: TA1537, Metabolic Activation: NONE, Method: STANDARD PLATE
[13] = Test System: AMES SALMONELLA TYPHIMURIUM, Strain/Indicator: TA1537, Metabolic Activation: RAT, LIVER, S-9, AROCLOR 1254, Method: PREINCUBATION
[14] = Test System: AMES SALMONELLA TYPHIMURIUM, Strain/Indicator: TA1537, Metabolic Activation: RAT, LIVER, S-9, AROCLOR 1254, Method: STANDARD PLATE

SMILES	mutagenic call [1]	mutagenic call [2]	mutagenic call [3]	mutagenic call [4]	mutagenic call [5]	mutagenic call [6]	mutagenic call [7]	mutagenic call [8]	mutagenic call [9]	mutagenic call [10]	mutagenic call [11]	mutagenic call [12]	mutagenic call [13]	mutagenic call [14]	also measured
O=c1[nH]c(=O)[nH]c(=O)[nH]1	inactive; negative	inactive; negative	inactive; negative	inactive; negative	inactive; negative	inactive; negative	inactive; negative	inactive; negative	inactive; negative	inactive; negative	inactive; negative	inactive; negative	inactive; negative	inactive; negative	mutagenic call (Test System: AMES SALMONELLA TYPHIMURIUM, Strain/Indicator: TA98, Metabolic Activation: HAMSTER, LIVER, S-9, AROCLOR 1254, Method: PREINCUBATION): inactive; negative; mutagenic call (Test System: AMES SALMONELLA TYPHIMURIUM, Strain/Indicator: TA100, Metabolic Activation: HAMSTER, LIVER, S-9, AROCLOR 1254, Method: PREINCUBATION): inactive; negative; mutagenic call (Test System: AMES SALMONELLA TYPHIMURIUM, Strain/Indicator: TA1535, Metabolic Activation: HAMSTER, LIVER, S-9, AROCLOR 1254, Method: PREINCUBATION): inactive; negative; mutagenic call (Test System: AMES SALMONELLA TYPHIMURIUM, Strain/Indicator: TA1535, Metabolic Activation: NONE, Method: STANDARD PLATE): inactive; negative; mutagenic call (Test System: AMES SALMONELLA TYPHIMURIUM, Strain/Indicator: TA1535, Metabolic Activation: RAT, LIVER, S-9, AROCLOR 1254, Method: STANDARD PLATE): inactive; negative; mutagenic call (Test System: AMES SALMONELLA TYPHIMURIUM, Strain/Indicator: TA1537, Metabolic Activation: HAMSTER, LIVER, S-9, AROCLOR 1254, Method: PREINCUBATION): inactive; negative; mutagenic call (Test System: MOUSE LYMPHOMA, Strain/Indicator: L5178Y (TK+/TK-), Metabolic Activation: NONE, Method: SUSPENSION/PLATE): inactive; negative; mutagenic call (Test System: MOUSE LYMPHOMA, Strain/Indicator: L5178Y (TK+/TK-), Metabolic Activation: RAT, LIVER, S-9, AROCLOR 1254, Method: SUSPENSION/PLATE): inactive; negative
CCc1cn([C@H]2C[C@H](O)[C@@H](CO)O2)c(=O)[nH]c1=O	inactive; negative	inactive; negative	inactive; negative	inactive; negative	inactive; negative	inactive; negative	inactive; negative	inactive; negative	inactive; negative	inactive; negative	inactive; negative	inactive; negative	inactive; negative	inactive; negative	mutagenic call (Test System: AMES SALMONELLA TYPHIMURIUM, Strain/Indicator: TA97, Metabolic Activation: NONE, Method: PREINCUBATION): inactive; negative; mutagenic call (Test System: AMES SALMONELLA TYPHIMURIUM, Strain/Indicator: TA97, Metabolic Activation: RAT, LIVER, S-9, AROCLOR 1254, Method: PREINCUBATION): inactive; negative; mutagenic call (Test System: AMES SALMONELLA TYPHIMURIUM, Strain/Indicator: TA102, Metabolic Activation: NONE, Method: PREINCUBATION): inactive; negative; mutagenic call (Test System: AMES SALMONELLA TYPHIMURIUM, Strain/Indicator: TA102, Metabolic Activation: RAT, LIVER, S-9, AROCLOR 1254, Method: PREINCUBATION): inactive; negative; mutagenic call (Test System: AMES SALMONELLA TYPHIMURIUM, Strain/Indicator: TA104, Metabolic Activation: NONE, Method: PREINCUBATION): inactive; negative; mutagenic call (Test System: AMES SALMONELLA TYPHIMURIUM, Strain/Indicator: TA104, Metabolic Activation: RAT, LIVER, S-9, AROCLOR 1254, Method: PREINCUBATION): inactive; negative; mutagenic call (Test System: AMES SALMONELLA TYPHIMURIUM, Strain/Indicator: TA1538, Metabolic Activation: NONE, Method: PREINCUBATION): inactive; negative; mutagenic call (Test System: AMES SALMONELLA TYPHIMURIUM, Strain/Indicator: TA1538, Metabolic Activation: RAT, LIVER, S-9, AROCLOR 1254, Method: PREINCUBATION): inactive; negative; mutagenic call (Test System: CHINESE HAMSTER V-79, Strain/Indicator: V-79/8-AZAGUANINE, Metabolic Activation: NONE): inactive; negative
CC1CNc2cc(O)c3ccc4ccccc4c3c21 (stereo not drawn)	–	–	–	active; positive	–	–	–	–	–	–	–	–	–	–	mutagenic call (Test System: AMES SALMONELLA TYPHIMURIUM, Strain/Indicator: TA98, Metabolic Activation: RAT, LIVER, S-9, AROCLOR, Method: STANDARD PLATE): active; positive
CCCOC(C(=O)OC1CCN(C)CC1)(c1ccccc1)c1ccccc1	inactive; negative	–	–	–	inactive; negative	–	–	–	inactive; negative	–	inactive; negative	–	–	–	mutagenic call (Test System: AMES SALMONELLA TYPHIMURIUM, Strain/Indicator: TA98, Metabolic Activation: RAT, LIVER, S-9, PHENOBARBITAL AND 5,6-BENZOFLAVONE, Method: PREINCUBATION): inactive; negative; mutagenic call (Test System: AMES SALMONELLA TYPHIMURIUM, Strain/Indicator: TA100, Metabolic Activation: RAT, LIVER, S-9, PHENOBARBITAL AND 5,6-BENZOFLAVONE, Method: PREINCUBATION): inactive; negative; mutagenic call (Test System: AMES SALMONELLA TYPHIMURIUM, Strain/Indicator: TA1535, Metabolic Activation: RAT, LIVER, S-9, PHENOBARBITAL AND 5,6-BENZOFLAVONE, Method: PREINCUBATION): inactive; negative; mutagenic call (Test System: AMES SALMONELLA TYPHIMURIUM, Strain/Indicator: TA1537, Metabolic Activation: RAT, LIVER, S-9, PHENOBARBITAL AND 5,6-BENZOFLAVONE, Method: PREINCUBATION): inactive; negative; mutagenic call (Test System: E. COLI, Strain/Indicator: WP2 UVRA, Metabolic Activation: NONE, Method: PREINCUBATION): inactive; negative; mutagenic call (Test System: E. COLI, Strain/Indicator: WP2 UVRA, Metabolic Activation: RAT, LIVER, S-9, PHENOBARBITAL AND 5,6-BENZOFLAVONE, Method: PREINCUBATION): inactive; negative
O=[N+]([O-])c1ccc2c(O)cc3cccc4ccc1c2c43	–	active; positive	–	active; positive	–	–	–	–	–	–	–	–	–	–	mutagenic call (Test System: AMES SALMONELLA TYPHIMURIUM, Strain/Indicator: TA98(1,8-DNP6), Metabolic Activation: NONE, Method: STANDARD PLATE): active; positive; mutagenic call (Test System: AMES SALMONELLA TYPHIMURIUM, Strain/Indicator: TA98(1,8-DNP6), Metabolic Activation: RAT, LIVER, S-9, AROCLOR 1254, Method: STANDARD PLATE): active; positive; mutagenic call (Test System: AMES SALMONELLA TYPHIMURIUM, Strain/Indicator: YG1024, Metabolic Activation: NONE, Method: STANDARD PLATE): active; positive; mutagenic call (Test System: AMES SALMONELLA TYPHIMURIUM, Strain/Indicator: YG1024, Metabolic Activation: RAT, LIVER, S-9, AROCLOR 1254, Method: STANDARD PLATE): active; positive
